# Laboratory results taken from US11091428B2 (HAPLOGEN GMBH, priority 2016, dated 2021).
# Where two headings read alike, the source gives them in different places.
# How the values were obtained:
# [1] = system: picornaviruses (CVB1, HRV-A2, HRV-A23, EV-68); test: Anti-picornavirus cytopathic effect (CPE) reduction assay on HeLa H1 cells; assay type: cell-based; conditions: HeLa H1 cells, 48 h, category from averaging the EC50 values from four picornaviruses (CVB1, HRV-A2, HRV-A23, EV68), read-out: EC50 values of the compounds determined in the anti-picornavirus assay
# How it was run: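 Cytopathic-effect protection: EC50 from non-linear regression of cell viability (CellTiterBlue, 560/590 nm) 48 h post-infection, scaled between infected and mock-infected vehicle wells. Compound dilutions added to HeLa H1 cells 2 h before virus (MOI causing complete CPE within 2 days), in DMEM + 2% FBS; categories average the four viruses.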
# PLA2G16 = molecular target: T1, PLA2G16 (Homo sapiens, UniProt P53816); test: Enzyme activity assay for PLA2G16 (Red/Green BODIPY PC-A2 fluorescence); assay type: biochemical; conditions: His-tagged PLA2G16, 4 min pre-incubation, 2 nM to 50 μM; read-out: IC50 values of the compounds determined in the enzyme activity assay for PLA2G16
# T1 construct: Hexa-His (N); made in house; host or cells: E. coli BL21(DE3)
# T1 sequence (P53816 1-162): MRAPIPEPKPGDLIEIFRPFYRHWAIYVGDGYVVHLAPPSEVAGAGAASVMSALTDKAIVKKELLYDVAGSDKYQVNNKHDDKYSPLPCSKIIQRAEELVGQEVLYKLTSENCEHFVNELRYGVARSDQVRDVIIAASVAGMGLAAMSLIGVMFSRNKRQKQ
# How it was run: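 IC50 from non-linear fits of fluorescence rise (480/530 nm, 10 min) after adding Red/Green BODIPY PC-A2 mixed with DOPC/DOPG/cholesterol liposomes. Recombinant His-tagged human enzyme, bacterially expressed, was first exposed to inhibitor (2 nM–50 μM final) for 4 min in 50 mM Tris pH 8.5, 100 mM NaCl, 5 mM glutathione.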
Structure (SMILES),"EC50 ([1]; Enterovirus B, HeLa H1, 48 h) [µM]",IC50 (PLA2G16) [µM],EC50 [1] [µM]
"Cc1noc(CNC(=O)C(=O)[C@H]2CCC(=O)N2Cc2ccccc2)n1 [FP 287, 2-[(2R)-1-Benzyl-5-oxopyrrolidin-2-yl]-N-[(3-methyl-1,2,4-oxadiazol-5-yl)methyl]-2-oxoacetamide]",1 to 10,< 1,
"CC(C)CC(C(=O)C(=O)NCC1CC1)N(C=O)C[C@H]1CCOC1 (stereo partly drawn) [FP 65, N-(Cyclopropylmethyl)-5-methyl-2-oxo-3-(N-{[(3R)-oxolan-3-yl]methyl}formamido) hexanamide]",1 to 10,< 1,
"O=CN(CC1CCOCC1)C(C(=O)C(=O)NCC1CC1)C1CC1 (stereo not shown) [FP 66, 3-Cyclopropyl-N-(cyclopropylmethyl)-3-{N-[(oxan-4-yl)methyl]formamido}-2-oxopropanamide]",1 to 10,< 1,
"O=C(NC1CC1)C(=O)C1CCC(=O)N1Cc1ccc(Cl)c(F)c1 (stereo not shown) [FP 232, 2-{1-[(4-Chloro-3-fluorophenyl)methyl]-5-oxopyrrolidin-2-yl}-N-cyclopropyl-2-oxoacetamide]",1 to 10,< 1,
"C[C@@H]1CC(=O)N(Cc2ccccc2)[C@@H]1C(=O)C(=O)NC1CC1 (single isomer, unassigned) [FP 338]",,< 1,1 to 10
"COc1ccccc1S(=O)(=O)NC(C)C(=O)C(=O)NCC1CC1 (stereo not shown) [FP 220, N-(Cyclopropylmethyl)-3-(2-methoxybenzenesulfonamido)-2-oxobutanamide]",1 to 10,< 1,
"COC(=O)CNC(=O)C(=O)C(C)N(C=O)Cc1ccccc1 (stereo not shown) [FP 56, Methyl 2-[3-(N-benzylformamido)-2-oxobutanamido]acetate]",> 10,< 1,
"CC(NC(=O)C1CC(F)(F)C1)C(=O)C(=O)NCC1CC1 (stereo not shown) [FP 174, N-(Cyclopropylmethyl)-3-[(3,3-difluorocyclobutyl)formamido]-2-oxobutanamide]",> 10,1 to 10,
"O=C(NCCc1cnccn1)C(=O)C1CCC(=O)N1Cc1ccccc1 (stereo not shown) [FP 227, 2-(1-Benzyl-5-oxopyrrolidin-2-yl)-2-oxo-N-[2-(pyrazin-2-yl)ethyl]acetamide]",1 to 10,< 1,
"CC(NC(=O)c1ccccc1)C(=O)C(=O)NCC1CCC1 (stereo not shown) [FP 181, N-(Cyclobutylmethyl)-2-oxo-3-(phenylformamido)butanamide]",1 to 10,< 1,
"Cc1cc(CNC(=O)C(=O)[C@H]2CCC(=O)N2Cc2ccccc2)no1 [FP 289, 2-[(2R)-1-Benzyl-5-oxopyrrolidin-2-yl]-N-[(5-methyl-1,2-oxazol-3-yl)methyl]-2-oxoacetamide]",< 1,< 1,
"CC(C)CC(C(=O)C(=O)NCC1CC1)N(C=O)CC1CC1 (stereo not shown) [FP 62, N-(Cyclopropylmethyl)-3-[N-(cyclopropylmethyl)formamido]-5-methyl-2-oxohexanamide]",< 1,< 1,
"O=C(NC1CC2(COC2)C1)C(=O)[C@H]1CCC(=O)N1Cc1ccccc1 [FP 297, 2-[(2R)-1-Benzyl-5-oxopyrrolidin-2-yl]-N-{2-oxaspiro[3.3]heptan-6-yl}-2-oxoacetamide]",1 to 10,< 1,
"CC(C)CC(=O)N1CC(NC(=O)C(=O)[C@H]2CCC(=O)N2Cc2ccccc2)C1 [FP 317, 2-[(2R)-1-Benzyl-5-oxopyrrolidin-2-yl]-N-[1-(3-methylbutanoyl)azetidin-3-yl]-2-oxoacetamide]",1 to 10,< 1,
"C[C@@H]1CC(=O)N(Cc2ccccc2)[C@@H]1C(=O)C(=O)NCC1CC1 (single isomer, unassigned) [FP 335]",1 to 10,< 1,
"O=C(NCC1CCCCC1)C(=O)C1CCC(=O)N1CC1CCOCC1 (stereo not shown) [FP 248, N-(Cyclohexylmethyl)-2-{1-[(oxan-4-yl)methyl]-5-oxopyrrolidin-2-yl}-2-oxoacetamide]",< 1,< 1,
"CC1(C)CC(=O)N(Cc2ccccc2)C1C(=O)C(=O)NC1CC1 (stereo not shown) [FP 349, 2-(1-Benzyl-3,3-dimethyl-5-oxopyrrolidin-2-yl)-N-cyclopropyl-2-oxoacetamide]",1 to 10,< 1,
"CC(=O)NCCCCCCNC(=O)C(=O)C1CCC(=O)N1Cc1ccccc1 (stereo not shown) [FP 328, 2-(1-Benzyl-5-oxopyrrolidin-2-yl)-N-(6-acetamidohexyl)-2-oxoacetamide]",1 to 10,< 1,
"CC(C)CN(C=O)C(C(=O)C(=O)NCC1CC1)C(C)C (stereo not shown) [FP 30, N-(Cyclopropylmethyl)-4-methyl-3-[N-(2-methylpropyl)formamido]-2-oxopentanamide]",1 to 10,< 1,
O=C(NCC1CCCCC1)C(=O)C1CCC(=O)N1Cc1nccs1 (stereo not shown) [FP 311],< 1,< 1,
"CC1(NC(=O)C(=O)C2CCC(=O)N2Cc2ccccc2)CC1 (stereo not shown) [FP 246, 2-(1-Benzyl-5-oxopyrrolidin-2-yl)-N-(1-methylcyclopropyl)-2-oxoacetamide]",1 to 10,< 1,
"CC(C)CC(C(=O)C(=O)NCC1CC1)N(C=O)CC1CCOC1 (stereo not shown) [FP 73, N-(Cyclopropylmethyl)-5-methyl-2-oxo-3-{N-[(oxolan-3-yl)methyl]formamido} hexanamide]",1 to 10,< 1,
"O=C(NC1CCN(S(=O)(=O)C2CC2)CC1)C(=O)[C@H]1CCC(=O)N1Cc1ccccc1 [FP 320, 2-[(2R)-1-Benzyl-5-oxopyrrolidin-2-yl]-N-[1-(cyclopropanesulfonyl)piperidin-4-yl]-2-oxoacetamide]",< 1,< 1,
"COc1ccccc1CNC(=O)C(=O)C(C)N(C=O)c1ccccc1OC (stereo not shown) [FP 95, 3-[N-(2-Methoxyphenyl)formamido]-N-[(2-methoxyphenyl)methyl]-2-oxobutanamide]",1 to 10,< 1,
"CCC(NS(=O)(=O)c1ccccc1)C(=O)C(=O)NCC1CC1 (stereo not shown) [FP 216, 3-Benzenesulfonamido-N-(cyclopropylmethyl)-2-oxopentanamide]",1 to 10,< 1,
"CC(C(=O)C(=O)NCc1cccc(Cl)c1)N(C=O)CC(C)(C)C (stereo not shown) [FP 23, N-[(3-Chlorophenyl)methyl]-3-[N-(2,2-dimethylpropyl)formamido]-2-oxobutanamide]",< 1,< 1,
"O=C(N[C@@H]1CCCCNC1=O)C(=O)[C@H]1CCC(=O)N1Cc1ccccc1 [FP 300, 2-[(2R)-1-Benzyl-5-oxopyrrolidin-2-yl]-2-oxo-N-[(3R)-2-oxoazepan-3-yl]acetamide]",1 to 10,< 1,
"CC(=O)N1CCC(CN(C=O)C(C)C(=O)C(=O)NCC2CCCCC2)CC1 (stereo not shown) [FP 79, 3-{N-[(1-Acetylpiperidin-4-yl)methyl]formamido}-N-(cyclohexylmethyl)-2-oxobutanamide]",> 10,1 to 10,
"N#CCCNC(=O)C(=O)[C@H]1CCC(=O)N1Cc1ccccc1 [FP 262, 2-[(2R)-1-Benzyl-5-oxopyrrolidin-2-yl]-N-(2-cyanoethyl)-2-oxoacetamide]",1 to 10,< 1,
